The target of series [1] is Ba/F3-KDR-transfected cells (Homo sapiens, UniProt P35968). In words: Ba/F3-KDR (minus IL3) cellular proliferation assay, Alamar Blue. The format is cell-based. As for the experimental part:
Ba/F3-KDR (Minus IL3 or Plus IL3) (Cellular Proliferation Assay)
(§1) In a 384 well plate, 100 nl of compound dilution in DMSO was sprayed before adding 50 μl cell culture medium (phenol red free RPMI-1640, 10% FBS, 2 mM L-Glutamine and 50 μg/ml Gentamycin) containing 20000 cells per well of Ba/F3-KDR-transfected cells. Cells were put in an incubator at 37° C. and 5% CO2. After 24 hours, 10 μl of Alamar Blue solution (0.5 mM K3Fe(CN)6, 0.5 mM KaFe(CN)6, 0.15 mM Resazurin and 100 mM Phosphate Buffer) was added to the wells, incubated for 4 hours at 37° C. and 5% CO2 before RFU's (Relative Fluorescence Units) (ex. 540 nm., em. 590 nm.) were measured in a flurorescence plate reader.
(§2) As a counterscreen the same experiment was performed in the presence of 10 ng/ml murine IL3.
as §1, with “a 96” for “a 384”, “plate, 180” for “plate, 100 nl of compound dilution in DMSO was sprayed before adding 50”, “containing 10000” for “containing 20000”, “Ba/F3-KDR-transfected cells were pipette and 20 μl of compound dilution in DMSO was added.” for “Ba/F3-KDR-transfected cells.”, “hours, 40” for “hours, 10”, “CO2” for “CO2 before”

Another series has as its target KDR (h) (VEGFR2) (Homo sapiens, UniProt P35968). Briefly: KDR (VEGFR2) (enzymatic assay), TR-FRET. The format is biochemical. As for the experimental part:
KDR (VEGFR2) (Enzymatic Assay)
In a final reaction volume of 30 μL, KDR (h) (150 ng/ml) was incubated with 50 mM HEPES pH 7.5, 6 mM MnCl2, 1 mM DTT, 0.1 mM Na3VO4, 0.01% Triton-X-100, 500 nM Btn-Flt3 and 3 μM ATP in the presence of compound (1% DMSO final). After incubation for 120 minutes at room temperature the reaction was stopped with 2.27 nM EU-anti P-Tyr, 7 mM EDTA, 31.25 nM SA-XL-665 and 0.02% BSA which was present for 60 minutes at room temperature. Time-Resolved Fluorescence Resonance Energy Transfer (TR-FRET) signal (ex340 nm. Em 620 nm, em 655 nm) was measured afterwards and results are expressed in RFU (Relative Fluorescence Units).

Series [2] has as its system Ba/F3-Flt3-transfected cells in the presence of 10 ng/ml murine IL3. Briefly: Ba/F3-Flt3 (plus IL3) cellular proliferation counterscreen, Alamar Blue. Conditions: Mus musculus, read-out: BAF3-FLT3 (PLUS IL3) 96 well pIC50 (converted). The format is cell-based.
Series [3] deals with T1, Ba/F3-Flt3-transfected cells (Homo sapiens, UniProt P36888, cells depend on it, form not given).
T1 sequence (P36888 1-993): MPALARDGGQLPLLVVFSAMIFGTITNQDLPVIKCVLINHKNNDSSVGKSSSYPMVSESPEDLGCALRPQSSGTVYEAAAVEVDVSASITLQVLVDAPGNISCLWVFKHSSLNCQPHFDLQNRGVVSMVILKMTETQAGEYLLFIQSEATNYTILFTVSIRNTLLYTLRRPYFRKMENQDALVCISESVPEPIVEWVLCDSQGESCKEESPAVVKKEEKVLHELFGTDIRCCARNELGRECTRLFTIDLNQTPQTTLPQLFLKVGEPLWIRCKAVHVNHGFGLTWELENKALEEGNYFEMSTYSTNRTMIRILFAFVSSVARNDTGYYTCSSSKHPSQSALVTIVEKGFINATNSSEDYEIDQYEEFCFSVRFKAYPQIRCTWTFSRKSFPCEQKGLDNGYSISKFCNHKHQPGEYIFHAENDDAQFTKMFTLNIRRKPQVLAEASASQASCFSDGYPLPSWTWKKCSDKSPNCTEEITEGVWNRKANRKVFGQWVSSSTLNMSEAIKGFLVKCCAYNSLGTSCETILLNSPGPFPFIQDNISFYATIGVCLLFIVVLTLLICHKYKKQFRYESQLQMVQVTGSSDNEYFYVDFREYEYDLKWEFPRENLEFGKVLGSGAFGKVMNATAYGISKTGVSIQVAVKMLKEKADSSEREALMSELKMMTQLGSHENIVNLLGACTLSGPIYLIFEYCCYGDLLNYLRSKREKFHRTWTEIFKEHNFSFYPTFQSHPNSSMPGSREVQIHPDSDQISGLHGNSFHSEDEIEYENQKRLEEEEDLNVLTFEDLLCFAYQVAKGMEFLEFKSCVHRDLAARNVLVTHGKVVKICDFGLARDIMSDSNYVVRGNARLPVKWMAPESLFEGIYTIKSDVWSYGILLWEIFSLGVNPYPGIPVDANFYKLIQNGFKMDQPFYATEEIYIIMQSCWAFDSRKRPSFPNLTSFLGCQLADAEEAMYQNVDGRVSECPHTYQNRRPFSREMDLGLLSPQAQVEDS
In words: Ba/F3-Flt3 (minus IL3) cellular proliferation assay, Alamar Blue. The series is classed as cell-based. As for the experimental part: (§3) Ba/F3-Flt3 (Minus IL3 or Plus IL3) (Cellular Proliferation Assay)
Cells were put in an incubator at 37° C. and 5% CO2. After 24 hours, 10 μl of Alamar Blue solution (0.5 mM K3Fe(CN)6, 0.5 mM KaFe(CN)6, 0.15 mM Resazurin and 100 mM Phosphate Buffer) was added to the wells, incubated for 4 hours at 37° C. and 5% CO2 before RFU's (Relative Fluorescence Units) (ex. 540 nm., em. 590 nm.) were measured in a flurorescence plate reader. […]
as §1, with “a 96” for “a 384”, “plate, 180” for “plate, 100 nl of compound dilution in DMSO was sprayed before adding 50”, “containing 10000” for “containing 20000”, “of Ba/F3-Flt3-transfected cells were pipette and 20 μl of compound dilution in DMSO was added.” for “of Ba/F3-KDR-transfected cells.”, “hours, 40” for “hours, 10”

The subject of series [4] is Ba/F3-FGFR1-transfected cells in the presence of 10 ng/ml murine IL3. Briefly: Ba/F3-FGFR1 (plus IL3) cellular proliferation counterscreen, Alamar Blue. The series is classed as cell-based. Conditions: Mus musculus; plus IL3, 384 well; read-out: BAF3-FGFR 1 (PLUS IL3) 384 well pIC50 (converted). As for the experimental part: Ba/F3-FGFR1 (Minus IL3 or Plus IL3) (Cellular Proliferation Assay)
as §1, with “Ba/F3-FGFR1-transfected” for “Ba/F3-KDR-transfected”
as §2
as §1, with “a 96” for “a 384”, “plate, 180” for “plate, 100 nl of compound dilution in DMSO was sprayed before adding 50”, “containing 10000” for “containing 20000”, “of Ba/F3-FGFR1-transfected cells were pipette and 20 μl of compound dilution in DMSO was added.” for “of Ba/F3-KDR-transfected cells.”, “hours, 40” for “hours, 10”

The subject of series [5] is Ba/F3-Flt3-transfected cells in the presence of 10 ng/ml murine IL3. Briefly: Ba/F3-Flt3 (plus IL3) cellular proliferation counterscreen, Alamar Blue. Conditions: Mus musculus; plus 10 ng/ml murine IL3; read-out: BAF3-FLT3 (PLUS IL3) 384 well pIC50 (converted). The format is cell-based. As for the experimental part:
as §3
as §1, with “Ba/F3-Flt3-transfected” for “Ba/F3-KDR-transfected”
as §2
as §1, with “a 96” for “a 384”, “plate, 180” for “plate, 100 nl of compound dilution in DMSO was sprayed before adding 50”, “containing 10000” for “containing 20000”, “of Ba/F3-Flt3-transfected cells were pipette and 20 μl of compound dilution in DMSO was added.” for “of Ba/F3-KDR-transfected cells.”, “hours, 40” for “hours, 10”

SMILES strings stand for the structures. Where two headings read alike, the source gives them in different places.

Consider four molecules from patent US10052320B2, “Substituted quinoxalines as FGFR kinase inhibitors” (ASTEX THERAPEUTICS LIMITED, priority 2011, dated 2018).

Sequence of Ba/F3-KDR-transfected cells (P35968 whole entry, change not shown): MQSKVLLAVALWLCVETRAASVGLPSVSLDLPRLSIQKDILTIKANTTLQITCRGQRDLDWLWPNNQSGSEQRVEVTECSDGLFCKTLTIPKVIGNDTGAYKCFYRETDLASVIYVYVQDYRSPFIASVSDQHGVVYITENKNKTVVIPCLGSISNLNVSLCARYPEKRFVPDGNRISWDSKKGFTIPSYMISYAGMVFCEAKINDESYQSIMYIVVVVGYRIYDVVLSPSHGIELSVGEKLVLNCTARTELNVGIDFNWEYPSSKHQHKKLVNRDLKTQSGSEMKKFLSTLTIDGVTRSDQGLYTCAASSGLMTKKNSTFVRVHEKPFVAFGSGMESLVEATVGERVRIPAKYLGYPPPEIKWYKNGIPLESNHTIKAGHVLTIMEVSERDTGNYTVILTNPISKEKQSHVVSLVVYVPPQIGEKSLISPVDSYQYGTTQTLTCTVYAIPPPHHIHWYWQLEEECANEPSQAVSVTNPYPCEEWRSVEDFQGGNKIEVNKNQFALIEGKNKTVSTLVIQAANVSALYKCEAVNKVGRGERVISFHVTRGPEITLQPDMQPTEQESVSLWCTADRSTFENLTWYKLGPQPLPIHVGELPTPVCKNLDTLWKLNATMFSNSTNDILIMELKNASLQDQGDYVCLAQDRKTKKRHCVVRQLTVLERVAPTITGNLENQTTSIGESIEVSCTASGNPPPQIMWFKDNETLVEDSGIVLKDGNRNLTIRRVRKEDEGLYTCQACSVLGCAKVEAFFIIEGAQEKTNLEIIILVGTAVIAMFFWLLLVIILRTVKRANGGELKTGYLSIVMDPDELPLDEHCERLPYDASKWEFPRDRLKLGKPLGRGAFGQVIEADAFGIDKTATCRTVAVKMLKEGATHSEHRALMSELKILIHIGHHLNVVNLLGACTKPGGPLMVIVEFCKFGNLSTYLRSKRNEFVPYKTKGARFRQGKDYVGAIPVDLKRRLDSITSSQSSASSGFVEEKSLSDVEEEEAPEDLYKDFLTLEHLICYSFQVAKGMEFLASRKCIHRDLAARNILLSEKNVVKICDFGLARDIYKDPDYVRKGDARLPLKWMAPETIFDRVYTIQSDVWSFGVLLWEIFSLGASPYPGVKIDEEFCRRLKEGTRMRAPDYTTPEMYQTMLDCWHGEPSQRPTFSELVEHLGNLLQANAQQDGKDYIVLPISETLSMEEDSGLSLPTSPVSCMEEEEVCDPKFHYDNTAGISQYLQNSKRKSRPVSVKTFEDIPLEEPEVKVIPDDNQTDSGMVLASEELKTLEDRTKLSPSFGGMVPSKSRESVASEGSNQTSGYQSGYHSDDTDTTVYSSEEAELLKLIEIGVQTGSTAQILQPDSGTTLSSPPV
Sequence of KDR (h) (VEGFR2) (P35968 20-1356): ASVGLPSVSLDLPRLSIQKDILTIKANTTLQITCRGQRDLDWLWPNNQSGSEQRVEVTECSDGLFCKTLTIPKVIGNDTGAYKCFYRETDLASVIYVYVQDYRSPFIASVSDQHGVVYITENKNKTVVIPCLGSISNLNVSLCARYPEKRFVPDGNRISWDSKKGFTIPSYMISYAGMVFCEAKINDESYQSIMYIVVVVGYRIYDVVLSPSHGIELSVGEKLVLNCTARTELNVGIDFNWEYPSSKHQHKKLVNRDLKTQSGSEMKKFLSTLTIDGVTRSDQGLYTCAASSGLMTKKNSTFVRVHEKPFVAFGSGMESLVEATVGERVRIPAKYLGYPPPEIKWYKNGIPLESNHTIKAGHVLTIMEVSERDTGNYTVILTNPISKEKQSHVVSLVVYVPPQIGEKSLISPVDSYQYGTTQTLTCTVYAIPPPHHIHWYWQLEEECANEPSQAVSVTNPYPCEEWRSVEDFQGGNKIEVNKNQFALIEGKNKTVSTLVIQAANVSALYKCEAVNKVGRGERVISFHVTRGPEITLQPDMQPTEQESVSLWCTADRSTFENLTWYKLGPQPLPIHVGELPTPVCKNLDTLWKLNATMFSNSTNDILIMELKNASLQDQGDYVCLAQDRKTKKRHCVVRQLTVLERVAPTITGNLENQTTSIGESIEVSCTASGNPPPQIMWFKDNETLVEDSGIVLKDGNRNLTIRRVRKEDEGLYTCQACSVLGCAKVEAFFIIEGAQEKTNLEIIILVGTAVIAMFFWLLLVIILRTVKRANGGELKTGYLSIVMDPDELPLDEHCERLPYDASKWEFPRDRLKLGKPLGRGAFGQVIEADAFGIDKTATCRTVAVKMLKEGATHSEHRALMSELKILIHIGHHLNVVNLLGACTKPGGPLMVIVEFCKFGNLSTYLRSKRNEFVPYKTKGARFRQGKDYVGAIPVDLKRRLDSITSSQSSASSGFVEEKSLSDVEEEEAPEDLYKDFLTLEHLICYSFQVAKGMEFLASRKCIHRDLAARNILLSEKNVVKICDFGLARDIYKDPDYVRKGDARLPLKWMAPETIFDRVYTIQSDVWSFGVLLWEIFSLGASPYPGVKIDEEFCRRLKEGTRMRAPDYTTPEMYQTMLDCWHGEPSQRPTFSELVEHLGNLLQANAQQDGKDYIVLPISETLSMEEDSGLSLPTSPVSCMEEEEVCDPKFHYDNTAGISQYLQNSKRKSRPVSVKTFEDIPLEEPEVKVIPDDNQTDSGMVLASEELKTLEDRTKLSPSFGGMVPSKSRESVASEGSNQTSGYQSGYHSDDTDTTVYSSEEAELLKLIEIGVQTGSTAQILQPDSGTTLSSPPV

Turning to `COc1cc(OC)cc(N(CC2CC2)c2ccc3ncc(-c4ccncc4)nc3c2)c1` [Compound 89], the melting point worked out at 105 °C. Further, the “BAF3-KDR (MIN IL3) 384 well pIC50” value in series [1] (minus IL3, 384 well) is <5. At KDR (h) (VEGFR2), the IC50 is 1.91 µM. The IC50 in series [2] (plus IL3, 96 well) is > 10 µM. In addition, the “BAF3-FLT3 (MIN IL3) 96 well pIC50” value in series [3] (minus IL3, 96 well) is on record as <5. For the same molecule, in series [3] (minus IL3, 384 well), the “BAF3-FLT3 (MIN IL3) 384 well pIC50” value is listed as <5.

`COc1cc(OC)cc(N(CC2CC2)c2ccc3ncc(-c4ccc(OC)nc4)nc3c2)c1` [Compound 91] came in with a melting point of 116 °C. Also, the “BAF3-KDR (MIN IL3) 384 well pIC50” value in series [1] (minus IL3, 384 well) is reported as <5. At KDR (h) (VEGFR2), the IC50 is > 10 µM. Besides, the IC50 in series [2] (plus IL3, 96 well) was > 10 µM. For the same molecule, the “BAF3-FLT3 (MIN IL3) 96 well pIC50” value in series [3] (minus IL3, 96 well) is <5. Besides, in series [3] (minus IL3, 384 well), the “BAF3-FLT3 (MIN IL3) 384 well pIC50” value was <5.

As to `COc1cc(OC)cc(N(CC2CC2)c2ccc3ncc(-c4ccc(N)nc4)nc3c2)c1` [Compound 94], the melting point turned out to be 185 °C. In series [1] (minus IL3), the “BAF3-KDR (MIN IL3) 96 well pIC50” value is <5 and the “BAF3-KDR (MIN IL3) 384 well pIC50” value is reported as <5. In addition, the IC50 against KDR (h) (VEGFR2) is 2.14 µM. Moreover, the IC50 in series [2] (plus 10 ng/ml murine IL3) was > 10 µM. Further, in series [3] (minus IL3), the “BAF3-FLT3 (MIN IL3) 96 well pIC50” value is given as <5 and the “BAF3-FLT3 (MIN IL3) 384 well pIC50” value is on record as <5.

On to `COc1cc(OC)cc(N(CCCO)c2ccc3ncc(-c4cnc(OC)nc4)nc3c2)c1` [Compound 141], for which the “BAF3-KDR (MIN IL3) 384 well pIC50” value in series [1] (minus IL3) is on record as <5. Further, the IC50 at KDR (h) (VEGFR2) is > 1 µM; in series [4] it was > 10 µM; in series [5], > 10 µM.
